The source of these data is patent US8796241B2, “Therapy of tumors and infectious agents deficient in methylthioadenosine phosphorylase” (priority 2007, dated 2014).

For test [1], the system named is MTAP(−) A549 cells. In words: Clonogenic assay of A549 cells. Format: cell-based, human. The method, then:
(§1) Cell viability of adherent cell types was measured by clonogenic assay as follows: after releasing cells with trypsin and removing a portion of the cell suspension for Coulter counting, the remainder of the cell suspension was plated in serial dilutions in growth medium, without drugs. After a period sufficient for clones to reach a size visible by eye (usually 2 to 3 weeks), clones were stained with crystal violet in a saline/methanol solution. Dishes that had fewer than 100 clones were deemed suitable for counting. From these counts and from the dilution factors, the approximate number of viable cells, in the parent treatment dishes, was calculated. […] In clonogenic assays, clone size was often variable, especially after treatment with toxic drugs. Moreover, many of the very small clones may have arisen from cells detached during the weeks of incubation. […] Cloning efficiency for healthy, growing A549 cells was about 50%; for HF cells, efficiency was quite variable, ranging from 25 to 75% (perhaps because the HF cell stock varied, from experiment to experiment, in passage number).
A549 cells were incubated for 4 days with additions shown below, and viable cells measured by clonogenic assay. (Results shown are approximate; see Methods) Cell count in dish at start: 40,000
(§2) • MTAP(−) A549 lung tumor cell cultures were treated with F-Ade, with or without MTA, 5′-dAdo, or adenine (Ade), for three days. Coulter counts of cells, and viable cells as determined by clonogenic assay, are shown below: • Initial cell number: 10,340*
• A549 cell cultures were treated with DAP, with or without 5′-dAdo or adenine, for three days. After trypsinization, one-fourth of the cell suspension was counted, and raw data is shown below, with duplicate counts for each sample. The cell suspension was also serially diluted for clonogenic assay. • Counts at start of experiment: Dish one: 36,480; 39,160; Dish two: 52,680; 51,360. • Initial viable cells by clonogenic assay: 180,000.
• Cell cultures were treated with MTX or alanosine for one day. DAP was then added and 3 days later, cells were trypsinized and serially diluted for clonogenic assay. Results are shown below: • Initial viable cells: 146,000
• A549 cells were plated, and after they had adhered to the substrate, medium was changed to methionine-free medium with 10% dialyzed serum. L-ethionine (Eth) and MTA were added, and after 4 days, cell cultures were trypsinized and serially diluted for clonogenic assay. • Initial number of viable cells: 160,000*
• A549 cultures were treated with 6-thioguanine (TG) or 2,6,diaminopurine (DAP), or both, for 3 days. • Initial viable cells: 275,000 • After 3 days: […]

Test [2] has as its system MTAP(+) HF cells. In words: Coulter counts of HF cell cultures. It counts as cell-based, human. The following applies: for Coulter counts: x56 = cells/dish. The method, then:
For adherent cell types (e.g., HF, A549, MCF7) cells were plated in 60 mm -diameter plastic tissue culture dishes and incubated at 37° C. in a humidified 5% CO2 atmosphere, in Dulbecco's Modified Eagle's Medium (DME) with 10% fetal bovine serum (FBS). At the start of an experiment, medium was replaced with DME and 10% dialyzed FBS.
(§3) For adherent cell types, cell numbers were determined periodically by releasing cells with trypsin (dead cells that were no longer adherent were removed by two prior rinses of the culture dish) and placing a portion of the resulting cell suspension in a Coulter counter. For cell types that grow in suspension, portions of the culture were counted directly, without trypsin treatment. Coulter counts of cells from each dish were done twice, and almost all experiments were done in duplicate. In the presentation of results, raw data for Coulter counts is given in some cases, while in others, counts have been rounded off to two to three significant figures. (Background Coulter counts—i.e., counts of diluent alone—were insignificant.)
Cell cultures were treated with MeP, with or without 5′-dAdo or MTA, for 4 days. The cell cultures were then changed to fresh medium, with the addition of 30 μM Ade to inhibit further action of the analog. Two days later cultures were trypsinized and a portion of the suspension was counted.
• A. F-Ade was added to cultures of HF cells, with varying amounts of 5′-dAdo. After 3 days, cell numbers were counted. • Initial cell count: 1,100 • After three days:
• Cultures of human fibroblasts were treated with DAP, 5′-dAdo, MTA, adenine, or MTX. Thymidine (15 μM) was added to all cultures. • Initial count was: 1807 • Counts, as raw data, after 3 days of incubation, are shown below: […]
• Human fibroblasts in culture were treated with 6-thioguanine (TG), 2,6-diaminopurine (DAP), or 5′-dAdo for 3 days. After trypsinization, cell numbers were counted. • Initial cell number: 296,000

Test [3] deals with human and mouse tumor cells. Description: Killing of tumor cells by adenine analogs (Applicants' findings, no method given). It counts as cell-based.
Test [4] has as its system MTAP(−) A549 cells. In words: Coulter counts of A549 cell cultures. It counts as cell-based, human. The following applies: three days, MTA, 5′-dAdo or Ade 40 μM where present, initial 10,340, x4 = cells per dish. As to the method:
as §3, §2
• A549 cell cultures were treated with DAP, with or without 5′-dAdo or adenine, for three days. After trypsinization, one-fourth of the cell suspension was counted, and raw data is shown below, with duplicate counts for each sample. […]

For test [5], the system named is MTAP(+) HF cells. In words: Clonogenic assay of HF cells. Format: cell-based, human. The method, then:
as §1
• B. F-Ade was added to cultures of MTAP(+) HF cells, with or without 5′-dAdo, for 3 days. Cultures were then trypsinized and serially diluted for clonogenic assay. • Initial number of viable cells per dish: 45,000 • Viable cells after 3 days shown below:
• HF cells were plated, and after they had adhered to the substrate, medium was changed to methionine-free medium, with 10% dialyzed serum. • Initial Coulter count: 73,000*; viable cells: 88,000 • After 3 days in methionine-free medium, with or without L-ethionine (Eth) or MTA: […]

For the next test, the system named is MTAP(+) ML-1 cells. In words: Coulter counts of ML-1 suspension cultures. Format: cell-based. The method, then:
For cell types that grow in suspension (e.g., ML-1, HL-60, K-562) medium was RPMI-1640 with 10% FBS (undialyzed).
as §3
For cells that grow in suspension, the effect of treatments was assessed solely by changes in Coulter count.
• ML-1 cells were incubated in RPMI 1640 with 10% FBS with 5′-dAdo (60 μM) for 6 hours. 5-fluorouracil (FU), 6-thioguanine (TG), or 2,6-diaminopurine (DAP) were then added, and after 2 additional days, 0.5 ml was taken for Coulter counts. Initial Coulter count/ml: 308,000

Test [6] concerns human fibroblasts (HF cells), MTAP-positive. Description: Coculture of HF and MCF7 cells treated with DAP with or without MTA, photographs. Format: cell-based. The method, then:
(§4) FIGS. 6A and 6B present photographs of experiments examining the efficacy of the selective therapeutic method of the invention in two human-tissue coculture experiments. In both experiments human fibroblasts (HF cells), which are MTAP-positive, and MCF7 cells, an MTAP-negative human breast adenocarcinoma cell line, were seeded together into culture dishes, in DME supplemented with 10% dialyzed fetal bovine serum.
(§5) In the experiment of FIG. 6A the cell coculture was treated for four days with 100 μM DAP and 25 μM MTA. At the end of this period, some of the culture dishes were fixed, to be photographed. Other dishes were trypsinized and diluted five-fold into fresh (drug-free) medium with adenine added (to stop any further toxic action of DAP) and allowed to grow for two more, or five more, days, before being fixed for photography.
(§6) In the experiment of FIG. 6B cell cocultures were treated for three days with 200 μM DAP alone or with the addition of 50 μM MTA, or with no drugs at all. As shown in the photo of the dish without any drugs added to the culture medium, both HF and MCF7 grew very well; many large masses of MCF7 cells are visible, with the elongated HF cells interspersed, confluently, between the MCF7 masses.

For test [7], the system named is MCF7 cells, an MTAP-negative human breast adenocarcinoma cell line. The test is described as above. Format: cell-based. The method, then: as §4, §5, §6
Test [8] relates to MTAP(+) HF cells. Description: Coculture of HF and A549-ouaR cells, clonogenic assay. Format: cell-based, human. The method, then:
as §1
(§7) HF and A549-ouaR (a ouabain-resistant derivative of the human lung carcinoma cell line A549, isolated by Applicants) cells were cultured together in a medium containing DAP, and with or without 5′-dAdo. After 3 days, cultures were trypsinized and serially diluted into fresh medium for clonogenic assays. Some dishes were treated with 0.1 μM ouabain to kill HF cells and permit easy visualization of surviving A549-ouaR clones. Initial viable cells: HF cells, 11,000; A549-ouaR cells, 40,000.

In another test the test system is MTAP(−) A549-ouaR cells. Described as above. Format: cell-based, human. The method, then: as §1, §7
Where [9] appears, read: a few days of treatment with 100-200 μM DAP.
[10] abbreviates: three days, DAP 200 μM, MTA 50 μM where present.

Molecules are shown by their SMILES. Marks after values point to notes of the source that are not given here.

For `Nc1nc(F)nc2nc[nH]c12` [F-Ade, 2-fluoroadenine], the “toxicity to A549 tumor cells, clonogenic assay” value in the test with MTAP(−) A549 cells [1] (1 to 2 μM F-Ade) is “highly toxic”. The “Viable Cells” value in the test with MTAP(−) A549 cells [1] (three days, F-Ade 1 μM, MTA, 5′-dAdo or Ade 40 μM where present) was 64; in the test with MTAP(−) A549 cells [1] (three days, F-Ade 2 μM, MTA, 5′-dAdo or Ade 40 μM where present) it was 0; in the test on MTAP(+) HF cells [5] (3 days, F-Ade 2 μM, 5′-dAdo 30 μM where present, initial viable cells per dish 45,000), 0*. Moreover, the Coulter counts with MTAP(+) HF cells [2] (3 days, F-Ade 0.3 μM, 5′-dAdo 7.5 μM where present, initial count 1,100) is recorded as 1478; in the test on MTAP(+) HF cells [2] (3 days, F-Ade 0.6 μM, 5′-dAdo 7.5 μM where present, initial count 1,100), 976; in the test with MTAP(−) A549 cells [4] (F-Ade 1 μM) it was 7,980; in the test with MTAP(−) A549 cells [4] (F-Ade 2 μM), 7,890. For the same compound, the “inhibition of HF cell growth” value in the test on MTAP(+) HF cells [2] (increasing concentrations of F-Ade) is on record as “increasing inhibition”. Besides, the “killing of human and mouse tumor cells” value in [3] was “very rapid and potent killing”. For the same compound, the “killing of human tumor cells” value in [3] (very short-term assays of 6 to 12 hours) is “effectively kill”. Besides, the “survival of HF cells” value in the test on MTAP(+) HF cells [5] (2 μM F-Ade, after 3 days) is given as “no HF cells survive”.
Consider `Nc1nc(N)c2[nH]cnc2n1` [DAP, 2,6-diaminopurine], for which the “toxicity to MTAP(−) A549 cells” value in the test with MTAP(−) A549 cells [1] (100 μM DAP) is “highly toxic”. Also, the “Viable Cells” value is given as 12,000 in the test on MTAP(−) A549 cells [1] (3 days, TG 40 μM, DAP 50 μM where present, initial viable cells 275,000); 59,000 in the test on MTAP(−) A549 cells [1] (MTX 1 μM or alanosine 3 μM for one day, then DAP 40 μM, 3 days (where present), initial viable cells 146,000); 0 with MTAP(−) A549 cells [1] (three days, DAP 100 μM, 5′-dAdo or Ade 30 μM where present, initial viable cells 180,000). The “Increase in cell number/ml, No 5′-dAdo” value in the test on MTAP(+) ML-1 cells (2 days, FU 3 μM, TG 20 μM, DAP 50 μM where present, initial Coulter count/ml 308,000) is on record as 220,000 /ml. Further, the “inhibition of growth of MTAP(+) ML-1 cells” value with MTAP(+) ML-1 cells (Example 14) is reported as “inhibited growth”. Further, the “Coulter counts” value with MTAP(+) HF cells [2] (3 days, MTX 10 μM, DAP 100 μM, 5′-dAdo, MTA or Ade 15 μM where present, thymidine 15 μM in all cultures, initial count 1807) is listed as 2,483. For the same compound, in the test with MTAP(+) HF cells [2] (3 days, TG 40 μM, DAP 50 μM, 5′-dAdo 60 μM where present, initial cell number 296,000), the Increase in cells/dish is reported as 254,000 cells/dish. In addition, the “inhibition of MTAP(+) HF cells” value in the test on MTAP(+) HF cells [2] (Example 8) was “inhibited”. Also, in the test on MTAP(+) HF cells [2] (Example 15), the “inhibition of HF cell growth” value is reported as “inhibited”. For the same compound, the “killing of HF cells in coculture” value (in [6] (setting [9]); in the test with MTAP(+) HF cells [8] (DAP alone)) was “effectively killed” each time. For the same compound, the “HF cells in coculture (photographs, FIG. 6B)” value in test [6] (setting [10]) is on record as “very few, if any, HF or MCF7 cells have survived”. The “killing of MCF7 cells in coculture” value in test [7] (setting [9]) is reported as “effectively killed”. Further, in test [7] (setting [10]), the “MCF7 cells in coculture (photographs, FIG. 6B)” value was “very few, if any, HF or MCF7 cells have survived”. Also, in test [3], the “killing of human and mouse tumor cells” value is “very rapid and potent killing”. The “Viable HF” value in the test on MTAP(+) HF cells [8] (coculture, 3 days, DAP 125 μM, 5′-dAdo 7.5 μM where present, initial viable HF cells 11,000) is listed as 240. Moreover, the “killing of A549-ouaR cells in coculture” value in the test with MTAP(−) A549-ouaR cells (DAP alone) is “effectively killed”. Moreover, the “Viable A549-ouaR” value with MTAP(−) A549-ouaR cells (coculture, 3 days, DAP 125 μM, 5′-dAdo 7.5 μM where present, initial viable A549-ouaR cells 40,000) stood at 0.
